For one assay, the target named is T1, PfCRT^Dd2_V141A (Plasmodium falciparum, UniProt Q8IBZ9, A220S/I356T/K76T/M74I/N326S/N75E/Q271E/R371I/V141A).
T1 construct: expressed in transfected cells; host or cells: Xenopus laevis oocytes
T1 sequence (Q8IBZ9 1-424 M74I/N75E/K76T/V141A/A220S/Q271E/N326S/I356T/R371I): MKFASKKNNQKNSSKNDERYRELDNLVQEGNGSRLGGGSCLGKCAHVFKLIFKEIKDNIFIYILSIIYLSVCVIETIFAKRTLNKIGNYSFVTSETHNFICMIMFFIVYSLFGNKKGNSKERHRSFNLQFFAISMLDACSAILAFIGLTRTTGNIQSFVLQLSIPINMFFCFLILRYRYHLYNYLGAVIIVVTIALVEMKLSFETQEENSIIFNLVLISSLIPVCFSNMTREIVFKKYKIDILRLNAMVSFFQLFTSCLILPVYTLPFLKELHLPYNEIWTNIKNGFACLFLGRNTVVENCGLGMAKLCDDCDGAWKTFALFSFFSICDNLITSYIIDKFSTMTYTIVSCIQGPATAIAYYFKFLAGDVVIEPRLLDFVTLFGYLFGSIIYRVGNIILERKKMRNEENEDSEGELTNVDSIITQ
Briefly: PfCRT-mediated CQ transport in oocytes expressing PfCRT^Dd2_V141A. It counts as cell-based. The note with it: S6 Fig; per biological replicate. The text has this: (§1) The docking results reflect the differences in the experimentally measured affinities of the two compounds for PfCRT^Dd2, with CQ having less favorable docking scores compared to PPQ (S1 Table). […] In this pose, CQ forms polar contacts via the two positively charged nitrogens: the nitrogen of the diethylamino tail makes a salt bridge with E75 on TM1 and the nitrogen of the 4-amminoquinoline ring makes a hydrogen bond with S257 on TM7. Hydrophobic contacts are established by the quinoline ring with I260, V141, and F145.
(§2) Drug transport assays were performed as previously described. Briefly, measurements of radiolabeled drug uptake were made over 1 h, unless otherwise specified. […] Where specified, one or more unlabeled drugs were also present at the indicated concentrations. […] The radioactivity in the sample was measured using a liquid scintillation analyser Tri-Carb 4910 TR (PerkinElmer). Water-injected oocytes were analyzed in parallel as a negative control. The buffer from each condition was measured in duplicate in parallel to each experiment to transform counts per minute into pmol of drug. Drug uptake attributable to PfCRT was determined by subtracting the background uptake from water-injected oocytes from that of PfCRT-expressing oocytes. […]

A further assay addresses T2, PfCRT^Dd2_S257A (Plasmodium falciparum, UniProt Q8IBZ9, A220S/I356T/K76T/M74I/N326S/N75E/Q271E/R371I/S257A).
T2 construct: expressed in transfected cells; host or cells: Xenopus laevis oocytes
T2 sequence (Q8IBZ9 1-424 M74I/N75E/K76T/A220S/S257A/Q271E/N326S/I356T/R371I): T1 sequence (Q8IBZ9 1-424 M74I/N75E/K76T/V141A/A220S/Q271E/N326S/I356T/R371I) with A141V, S257A
Nature of the assay: PfCRT-mediated CQ transport in oocytes expressing PfCRT^Dd2_S257A. Type of assay: cell-based. Conditions: S6 Fig; per biological replicate.
Source text: as §1, §2

Another assay deals with T3, PfCRT^Dd2 (Plasmodium falciparum, UniProt Q8IBZ9, A220S/I356T/K76T/M74I/N326S/N75E/Q271E/R371I).
T3 sequence (Q8IBZ9 1-424 M74I/N75E/K76T/A220S/Q271E/N326S/I356T/R371I): T1 sequence (Q8IBZ9 1-424 M74I/N75E/K76T/V141A/A220S/Q271E/N326S/I356T/R371I) with A141V
The note with it: read-out: apparent Km for CQ on PfCRT^Dd2, cited from earlier work.

The next assay concerns Dd2^Dd2crt parasites. More on the design: method as in Okombo et al. (2022). Conditions: ref Okombo et al. (2022); cited from earlier work.

Numbering of substitutions follows the chain as printed. “And” between values parts separate entries of the source, which are not always exact repeats. Identical values can stand only once. Like-named read-outs stand apart in the source and are kept apart here.

For orientation: Km means the concentration of substrate that gives half-maximal velocity.

Consider `CCN(CC)CCCC(C)Nc1ccnc2cc(Cl)ccc12` (centres unmarked) [CQ, chloroquine], for which the “PfCRTDd2_V141A-mediated CQ transport” value at PfCRT^Dd2_V141A was 1.080 pmol oocyte-1 h-1 and 0.460 pmol oocyte-1 h-1 and 1.360 pmol oocyte-1 h-1. Further, on PfCRT^Dd2_S257A, the “PfCRTDd2_S257A-mediated CQ transport” value is 1.610 pmol oocyte-1 h-1 and 1.360 pmol oocyte-1 h-1 and 1.980 pmol oocyte-1 h-1. Moreover, the Km is 250 ± 30 µM at PfCRT^Dd2 (ref Bellanca et al., 2014) and 245 ± 3 µM at PfCRT^Dd2 (ref Martin et al. 2009).
Regarding `Clc1ccc2c(N3CCN(CCCN4CCN(c5ccnc6cc(Cl)ccc56)CC4)CC3)ccnc2c1` [PPQ, piperaquine], the drug accumulation ratio with Dd2^Dd2crt parasites is on record as 1900 fold.

Source of the values: PMC10281575, “PfCRT mutations conferring piperaquine resistance in falciparum malaria shape the kinetics of quinoline drug binding and transport” (PLOS Pathogens, 2023).
